Assay results taken from PubChem BioAssay (NCI).
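48-hour exposure; five concentrations; linearly interpolated endpoints. GI50: concentration for 50% inhibition of growth. The concentration for full growth arrest is given as TGI.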

Legend:
Assay in all cases: DTP human tumour cell line panel, 48 h
[1] = system: A549 NSCLC
[2] = system: K-562 leukemia
[3] = system: SR leukemia
[4] = system: TK-10 renal
[5] = system: DU-145 prostate
[6] = system: HS 578T breast
[7] = system: HCT-15 colon
[8] = system: SK-MEL-5 melanoma
[9] = system: NCI-H226 lung
[10] = system: SN12C renal
[11] = system: PC-3 prostate
[12] = system: ACHN renal
[13] = system: NCI/ADR-RES ovarian
[14] = system: HOP-62 NSCLC
[15] = system: COLO 205 colon
[16] = system: OVCAR-3 ovarian
[17] = system: UACC-257 melanoma
[18] = system: SF-539 CNS
[19] = system: BT-549 breast
[20] = system: SK-OV-3 ovarian
[21] = system: MALME-3M melanoma
[22] = system: HT29 colon
[23] = system: CAKI-1 renal
[24] = system: 786-0 renal
[25] = system: HCT-116 colon
[26] = system: SF-295 CNS
[27] = system: M14 melanoma
[28] = system: MCF7 breast
[29] = system: KM12 colon
[30] = system: RXF 393 renal
[31] = system: SNB-75 CNS
[32] = system: SK-MEL-2 melanoma
[33] = system: NCI-H522 lung
[34] = system: HL-60(TB) leukemia
[35] = system: SNB-19 CNS
[36] = system: SW-620 colon
[37] = system: MDA-MB-231 breast
[38] = system: OVCAR-8 ovarian
[39] = system: UO-31 renal
[40] = system: SK-MEL-28 melanoma
[41] = system: IGROV1 ovarian
[42] = system: LOX IMVI melanoma
[43] = system: T-47D breast
[44] = system: SF-268 CNS
[45] = system: MOLT-4 leukemia
[46] = system: EKVX NSCLC
[47] = system: OVCAR-5 ovarian
[48] = system: A498 renal
[49] = system: UACC-62 melanoma
[50] = system: OVCAR-4 ovarian
[51] = system: HOP-92 NSCLC
[52] = system: RPMI-8226 leukemia
[53] = system: MDA-MB-435
[54] = system: U251 CNS
[55] = system: HCC-2998 colon

Compound: CCOC(=O)Cc1csc(NC(=O)COC(=O)c2ccc(N)cc2)n1
- GI50 [1]: > 100 µM
- TGI [1]: > 100 µM
- GI50 [2]: 88.3 µM
- TGI [2]: > 100 µM
- GI50 [3]: 13.4 µM
- TGI [3]: 45.2 µM
- GI50 [4]: > 100 µM
- TGI [4]: > 100 µM
- GI50 [5]: > 100 µM
- TGI [5]: > 100 µM
- GI50 [6]: > 100 µM
- TGI [6]: > 100 µM
- GI50 [7]: > 100 µM
- TGI [7]: > 100 µM
- GI50 [8]: 97.6 µM
- TGI [8]: > 100 µM
- GI50 [9]: > 100 µM
- TGI [9]: > 100 µM
- GI50 [10]: > 100 µM
- TGI [10]: > 100 µM
- GI50 [11]: 68.4 µM
- TGI [11]: > 100 µM
- GI50 [12]: > 100 µM
- TGI [12]: > 100 µM
- GI50 [13]: > 100 µM
- TGI [13]: > 100 µM
- GI50 [14]: > 100 µM
- TGI [14]: > 100 µM
- GI50 [15]: > 100 µM
- TGI [15]: > 100 µM
- GI50 [16]: 18.8 µM
- TGI [16]: 50.7 µM
- GI50 [17]: > 100 µM
- TGI [17]: > 100 µM
- GI50 [18]: 19.3 µM
- TGI [18]: 37 µM
- GI50 [19]: > 100 µM
- TGI [19]: > 100 µM
- GI50 [20]: > 100 µM
- TGI [20]: > 100 µM
- GI50 [21]: > 100 µM
- TGI [21]: > 100 µM
- GI50 [22]: 56.9 µM
- TGI [22]: > 100 µM
- GI50 [23]: > 100 µM
- TGI [23]: > 100 µM
- GI50 [24]: 23.8 µM
- TGI [24]: 56.9 µM
- GI50 [25]: > 100 µM
- TGI [25]: > 100 µM
- GI50 [26]: > 100 µM
- TGI [26]: > 100 µM
- GI50 [27]: > 100 µM
- TGI [27]: > 100 µM
- GI50 [28]: 97.9 µM
- TGI [28]: > 100 µM
- GI50 [29]: > 100 µM
- TGI [29]: > 100 µM
- GI50 [30]: > 100 µM
- TGI [30]: > 100 µM
- GI50 [31]: 54.4 µM
- TGI [31]: > 100 µM
- GI50 [32]: > 100 µM
- TGI [32]: > 100 µM
- GI50 [33]: 18.8 µM
- TGI [33]: 40 µM
- GI50 [34]: 20 µM
- TGI [34]: 41.3 µM
- GI50 [35]: > 100 µM
- TGI [35]: > 100 µM
- GI50 [36]: > 100 µM
- TGI [36]: > 100 µM
- GI50 [37]: > 100 µM
- TGI [37]: > 100 µM
- GI50 [38]: 95.7 µM
- TGI [38]: > 100 µM
- GI50 [39]: 76.6 µM
- TGI [39]: > 100 µM
- GI50 [40]: > 100 µM
- TGI [40]: > 100 µM
- GI50 [41]: 21.8 µM
- TGI [41]: 49.8 µM
- GI50 [42]: 14.1 µM
- TGI [42]: 34.6 µM
- GI50 [43]: 75.4 µM
- TGI [43]: > 100 µM
- GI50 [44]: 23.6 µM
- TGI [44]: 60 µM
- GI50 [45]: 28.5 µM
- TGI [45]: 81.4 µM
- GI50 [46]: > 100 µM
- TGI [46]: > 100 µM
- GI50 [47]: 59.3 µM
- TGI [47]: > 100 µM
- GI50 [48]: > 100 µM
- TGI [48]: > 100 µM
- GI50 [49]: > 100 µM
- TGI [49]: > 100 µM
- GI50 [50]: 72 µM
- TGI [50]: > 100 µM
- GI50 [51]: 20.7 µM
- TGI [51]: 44.8 µM
- GI50 [52]: 40.4 µM
- TGI [52]: > 100 µM
- GI50 [53]: > 100 µM
- TGI [53]: > 100 µM
- GI50 [54]: > 100 µM
- TGI [54]: > 100 µM
- GI50 [55]: > 100 µM
- TGI [55]: > 100 µM
